“And” between values parts separate entries of the source, which are not always exact repeats. Identical values can stand only once.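 In this assay, cells in 96-well plates receive the compound at five concentrations for 48 hours. Endpoints are linearly interpolated between the surrounding concentrations. GI50: concentration for 50% inhibition of growth. Definition used: TGI = concentration required for complete inhibition of growth.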
Legend:
Assay in all cases: inhibition of tumour cell growth, NCI panel, 48 h
[1] = system: HT29 colon
[2] = system: K-562 leukemia
[3] = system: MALME-3M melanoma
[4] = system: NCI-H226 lung
[5] = system: NCI-H522 lung
[6] = system: UACC-62 melanoma
[7] = system: DU-145 prostate
[8] = system: MDA-MB-231 breast
[9] = system: MDA-MB-435
[10] = system: MCF7 breast

Compound | TGI [1] | TGI [2] | TGI [3] | TGI [4] | TGI [5] | TGI [6] | GI50 [7] | TGI [7] | GI50 [1] | GI50 [2] | GI50 [8] | TGI [8] | GI50 [9] | TGI [9] | GI50 [4] | GI50 [5] | GI50 [6] | GI50 [3] | GI50 [10] | TGI [10]
CCC12CCCN(Cc3ccccc3)C1c1c(n(C)c3ccccc13)CC2 (centres undefined) | > 253 µM | > 253 µM | > 253 µM | > 253 µM | 220 µM | > 253 µM |  |  |  |  |  |  |  |  |  |  |  |  |  | 
NC(N)=N/N=C/c1c(-c2ccsc2)nc2sccn12 | 25.3 µM | 29.9 µM |  | 31.2 µM | 30.5 µM | 29 µM | 16.4 µM | 31.4 µM | 11.6 µM | 13.1 µM | 16.6 µM | 30.9 µM | 14.6 µM | 27.7 µM | 16.4 µM | 12.2 µM | 15.6 µM |  |  | 
C#CCOc1cccc(-c2ncc3cc(NC(=O)CCl)ccc3n2)c1 | 3.99 µM | > 100 µM | 3.29 µM | 8.17 µM | 2.51 µM | 3.36 µM | 1.79 µM | 3.19 µM | 2.02 µM | 0.561 µM |  |  |  |  | 2.6 µM | 1.16 µM | 1.52 µM | 1.65 µM |  | 
COC(=O)C[C@](O)(CCCC(C)(C)O)C(=O)O[C@@H]1C(OC)=C[C@]23CCCN2CCc2cc4c(cc2[C@H]13)OCO4 |  |  | 0.268 µM and 0.0635 µM |  | 0.186 µM and 0.0288 µM | 0.712 µM and 0.137 µM | 0.0343 µM |  | 0.0183 µM | 0.0292 µM | 0.087 µM |  | 0.0279 µM |  | 0.0112 µM | 0.0482 µM and < 0.01 µM | 0.03 µM | 0.0196 µM | < 0.01 µM | 0.377 µM and 0.0666 µM
CNCc1ccccc1-c1csc([C@@H](C)Nc2nc(C)nc3cc(OC)c(OC)cc23)c1 | 4.33 µM | 1.57 µM | 3.28 µM | 32.7 µM | 3.64 µM | 3.43 µM | 4.59 µM | 15.6 µM | 1.71 µM | 0.168 µM | 1.85 µM | 3.78 µM | 1.75 µM | 3.2 µM | 13.6 µM | 1.54 µM | 1.84 µM | 1.76 µM | 1.44 µM | 3.19 µM
CC/C=C\C[C@H](O)C/C=C1/C(=O)C(Cl)=C[C@@H]1C/C=C\CCCC(=O)OC | 1.07 µM | 16.7 µM | 1.23 µM | 2.26 µM | 0.592 µM | 0.717 µM | 0.692 µM | 2.7 µM | 0.406 µM | 0.269 µM | 0.71 µM | 2.9 µM | 0.404 µM | 1.22 µM | 0.537 µM | 0.271 µM | 0.27 µM | 0.451 µM | 0.185 µM | 2.44 µM
N.N.N.N.O=C([O-])CCl.O=C([O-])CCl.[Co+3].[O-][Cl+3]([O-])([O-])[O-] | > 100 µM | > 100 µM | > 100 µM |  | > 100 µM | > 100 µM |  |  | > 100 µM | > 100 µM |  |  |  |  |  | > 100 µM | > 100 µM | > 100 µM |  | 
C=C1C(=O)OC2CC(C)C(C(CC(C)=O)OC(C)=O)=CCC12 (centres undefined) | 22 µM | 17.9 µM | 3.97 µM | > 66.4 µM | 3.27 µM | 25.4 µM |  | 30.1 µM |  |  |  | 27.2 µM |  | 33 µM |  |  |  |  |  | 18.2 µM
CN(C)CCNC(=O)c1cccc2ccc(-c3ccc(O)cc3)nc12 | 14.5 µM and 17.2 µM | 3.96 µM | 6.08 µM and 2.9 µM | 6.33 µM and 3.6 µM | 4.62 µM and 9.18 µM | 3.16 µM and 3.83 µM |  | 10.6 µM |  |  |  | 11.6 µM |  | 15.5 µM | 0.94 µM | 2.26 µM | 1.6 µM | 0.863 µM |  | 5.2 µM
CC(C)NC(=O)OCc1c(COC(=O)NC(C)C)c(-c2cc[n+](COC(=O)C3CC3)cc2)n2c1CCC2 | > 100 µM | > 100 µM | > 100 µM | > 100 µM | > 100 µM | > 100 µM |  | > 100 µM |  |  |  | > 100 µM |  | > 100 µM |  |  |  |  |  | > 100 µM
CCN(CC)CCCN1CCc2c([nH]c3ccccc23)C1c1cccnc1 (centres undefined) | > 100 µM | > 100 µM | > 100 µM | > 100 µM | > 100 µM | > 100 µM |  |  |  |  |  |  |  |  |  |  |  |  |  | 
Cc1cc(Cl)cc(OCCn2cc(F)cn2)c1-c1nc(N)nc2c1CN(C(=O)NCC(C)(F)F)C2 | > 100 µM | > 100 µM | > 100 µM | > 100 µM | > 100 µM | > 100 µM | 0.0652 µM | > 100 µM | 0.0355 µM | 0.0519 µM | 0.257 µM | > 100 µM | 0.0578 µM | > 100 µM | 0.233 µM | 0.0781 µM | 0.0779 µM | 0.0684 µM | 0.0339 µM | > 100 µM
CC[As](CC)SC[C@H](C)C(=O)N1CCC[C@H]1C(=O)O | > 100 µM | 0.0615 µM | 0.207 µM | 0.614 µM | 0.0482 µM | 0.538 µM | 0.0297 µM | 0.104 µM | 0.339 µM | < 0.01 µM | 0.0686 µM | 0.301 µM | 0.0305 µM | 0.114 µM | 0.201 µM | 0.0189 µM | 0.149 µM | 0.0441 µM | 0.0363 µM | 0.159 µM
OC(CC1SCCCS1)c1ccccc1 (centres undefined) | > 100 µM | > 100 µM | > 100 µM | > 100 µM | > 100 µM | > 100 µM |  |  |  |  |  |  |  |  |  |  |  |  |  | 
CC1(C)COC(C2(C)C(=O)C=C(c3ccccc3)c3ccccc32)=N1 (centres undefined) | 99 µM | > 100 µM | 63.8 µM | > 100 µM | > 100 µM | > 100 µM |  |  |  |  |  |  |  |  |  |  |  |  |  | 
COc1ccc2occ(CCC(=O)O)c2c1 | > 100 µM | > 100 µM |  |  |  | > 100 µM |  |  |  |  |  |  |  |  |  |  |  |  |  | 
O=C(CCN(C(=O)O)S(=O)(=O)c1ccc(NC(=O)c2ccccc2)cc1)Nc1ccccc1 | > 100 µM | > 83.2 µM | > 100 µM | > 100 µM | > 100 µM | 97.5 µM |  |  |  |  |  |  |  |  |  |  |  |  |  | 
Nc1ccc([N+](=O)[O-])cc1N=C/C=C/c1ccccc1 | 67.1 µM | > 100 µM | > 100 µM | > 100 µM | 59 µM | > 100 µM | 13.9 µM | 64.9 µM | 5.05 µM | 5.43 µM | 7.57 µM | > 100 µM |  |  | 27.8 µM | 4.47 µM | 11.9 µM | 25.1 µM | 6.61 µM | > 100 µM
